# Like-named read-outs stand apart in the source and are kept apart here. *1 amine or outer side, *2 acyl side, *3 side chain or, on linkers, in order; H or OH if unused. Where a SMILES comes first, the peptide text is derived from it. Bridges are numbered along the chain shown (N, C = ends). Roman numbers before positions name the chains, in order. [ ]: non-standard residue; d: D form. The star is where a group is joined. X4 = C#CCOCCOCCOCCOCCNC(=O)CN(CC(=O)[*:1])CC(=O)[*:2]; Propargyl(OCH2CH2)4CO = C#CCOCCOCCOCCOCCC(=O)*; X1 = CCCCCC[C@@H](O)[C@H](N[*:1])C(=O)[*:2]; dCha = N[C@H](CC1CCCCC1)C(=O)O; Aoc(2) = CCCCCC[C@H](N)C(=O)O; Nle = CCCC[C@H](N)C(=O)O; Dab = NCC[C@H](N)C(=O)O; azaGly = NNC(=O)O
# Tests used:
# Ec 2469 = type: cell-based, Escherichia coli
# How it was run: (§1)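 Compounds were serially diluted 2-fold (8 or 12 points) against inocula from MHA cultures, set to ~0.1 OD600 in 0.85% saline. Conjugates were tested in RPMI B. Plates were incubated at 35 °C for 16-20 h, and Pa LES431 was also run with and without 50% heat-inactivated FBS.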
# Ec 25922 = type: cell-based, Escherichia coli; conditions: for MIC in RPMI EC 25922: pH 7.4
# How it was run: as §1
# E. coli 25922 = conditions: 72 hours after bacterial challenge, N=3
# Procedure: In vivo screening of selected compounds was accomplished in an E. coli bacteremia model (N=3). Efficacy was assessed in an animal model of infection using CD-1 mice by evaluating bacteremia in immune competent mice challenged with 2× the LD95 of E. coli 25922 (dosed qd, intraperitoneally (IP) at T+1 hour, survival endpoint).
# Colistin (COL) and Int-17 were dosed at 0.3 mg/kg and Int-41 was dosed at 3.0 mg/kg. Percent survival was determined 72 hours after bacterial challenge. Compounds with MICs against E. coli 25922 of less than 4 μg/ml were evaluated in the bacteremia model.
# Int-115 and Int-118 were evaluated for potency in a lethal model of bacteremia. […] Test articles were dissolved in 1× PBS and injected IV at a dose volume of 10 ml/kg one hour following bacterial challenge. Animals were monitored twice daily and mortality scored over three days.
# CD-1 mice were used for bacteremia, C57BL/6J mice for endotoxemia. The endpoint was survival after three days for both models.
# Ab AB5075 = type: cell-based, Acinetobacter baumannii; conditions: for MIC in RPMI AB 5075: pH 7.4
# How it was run: as §1
# Ec AR0349 (mcr-1, COL^R) = type: cell-based, Escherichia coli; conditions: media CA-MHB
# Ec 25922 64X-1 (COL^R) = type: cell-based, Escherichia coli; conditions: media CA-MHB
# Kp 10031 = type: cell-based, Klebsiella pneumoniae
# How it was run: as §1
# Kp 6951 (COL^R) = type: cell-based, Klebsiella pneumoniae
# How it was run: as §1
# Kp 43816 = type: cell-based, Klebsiella pneumoniae
# How it was run: as §1
# Pa 27853 = type: cell-based, Pseudomonas aeruginosa
# How it was run: as §1
# Pa PAO1 = type: cell-based, Pseudomonas aeruginosa; conditions: for MIC: PAO1; for MIC in RPMI PA 01: PAO1, pH 7.4
# How it was run: as §1
# Pa LES431 = type: cell-based, Pseudomonas aeruginosa
# How it was run: as §1
# Ab 19606 (COLhet^R) = type: cell-based, Acinetobacter baumannii; conditions: media CA-MHB
# Ab 8990 (COL^R) = type: cell-based, Acinetobacter baumannii
# How it was run: as §1
# Sa RN = type: cell-based
# P. aeruginosa PAO1 = type: cell-based
# Procedure: (§2) Overnight stationary-phase cultures were centrifuged at 3,500×g for 10 min at room temperature and resuspended in 1×PBS to an optical density at 600 nm (OD600) of 0.4 (1×10^8 colony forming units [CFU]/ml) in RPMI with L-glutamine and phenol red (Life Technologies). Bacteria were diluted 1:25 in RPMI ([…]) and 10 ul added to wells of a non-binding 96-well plate (Corning 3641) containing 80 ul of 50% hirudin anti-coagulated blood (complement active) in RPMI. […] MBC was defined as the minimum conjugate concentration required for bacterial clearance (Table 8A and Table 8B). An untreated growth control (40% blood, 0 ug/ml conjugate) was included in all assays as a growth comparator.
# (§3) MBC was defined as the minimum compound concentration required for complete bacterial clearance (Table 18).
# (§4) In most cases, 2-4 fold improvements in antibacterial activity for the conjugates are observed in the presence of complement active human blood.
# A. baumannii AB5075 = type: cell-based
# Procedure: as §2, §3, §4
# E. coli ATCC 25922 = type: cell-based
# Procedure: as §2, §3, §4
# [1] = test system: Ab AB58705 (COL^R) IpxD, mut. (no LPS); type: cell-based, Acinetobacter baumannii; conditions: media CA-MHB
Compound,MIC (Ec 2469),MIC (Ec 25922),"MIC E. coli ATCC 25922, No serum (Ec 25922)","MIC E. coli ATCC 25922, Serum (Ec 25922)",MIC (Ab AB5075),"MIC (Ec AR0349 (mcr-1, COL^R))",MIC (Ec 25922 64X-1 (COL^R)),MIC (Kp 10031),MIC (Kp 6951 (COL^R)),MIC (Kp 43816),MIC (Pa 27853),MIC (Pa PAO1),MIC (Pa LES431),MIC (Ab 19606 (COLhet^R)),MIC (Ab 8990 (COL^R)),MIC (Sa RN),MIC in RPMI EC 25922 (Ec 25922),MIC in RPMI AB 5075 (Ab AB5075),MBC in blood PA 01 (P. aeruginosa PAO1),MBC in blood AB 5075 (A. baumannii AB5075),also measured
C#CCOCCOCCOCCOCCC(=O)N[C@@H](CCCCCC)C(=O)N[C@@H](CCN)C(=O)N[C@H](C(=O)N[C@@H](CCN)C(=O)N[C@H]1CCNC(=O)[C@H]([C@@H](C)O)NC(=O)[C@H](CCN)NC(=O)[C@H](CCN)NC(=O)[C@H](CC(C)C)NC(=O)[C@@H](Cc2ccccc2)NC(=O)[C@H](CCN)NC1=O)[C@@H](C)O [Int-17] ({Propargyl(OCH2CH2)4CO}-[Aoc(2)][Dab]T[Dab][Dab][Dab][dF]L[Dab][Dab]T; lactam 5-C),1 µg/mL,2 µg/mL,2 µg/mL,0.5 µg/mL,1 µg/mL,16 µg/mL,64 µg/mL,1 µg/mL,>128 µg/mL,1 µg/mL,2 µg/mL,4 µg/mL,1 µg/mL,1 µg/mL,–,–,–,–,–,–,"% Survival (IP, QD) (E. coli 25922; 0.3 mg/kg IP qd at T+1 hour): 100%"
C#CCOCCOCCOCCOCCCNC(=O)CN(CC(=O)N[C@@H](CCCC)C(=O)N[C@@H](CCN)C(=O)N[C@H](C(=O)N[C@@H](CCN)C(=O)N[C@H]1CCNC(=O)[C@H]([C@@H](C)O)NC(=O)[C@H](CCN)NC(=O)[C@H](CCN)NC(=O)[C@H](CC(C)C)NC(=O)[C@@H](Cc2ccccc2)NC(=O)[C@H](CCN)NC1=O)[C@H](O)CCC)C(=C)N[C@@H](CCCC)C(=O)N[C@@H](CCN)C(=O)N[C@H](C(=O)N[C@@H](CCN)C(=O)N[C@H]1CCNC(=O)[C@H]([C@@H](C)O)NC(=O)[C@H](CCN)NC(=O)[C@H](CCN)NC(=O)[C@H](CC(C)C)NC(=O)[C@@H](Cc2ccccc2)NO[C@H](CCN)NC1=O)[C@H](O)CCC [Int-41],2 µg/mL,4 µg/mL,4 µg/mL,1 µg/mL,4 µg/mL,4 µg/mL,4 µg/mL,4 µg/mL,16 µg/mL,4 µg/mL,2 µg/mL,2 µg/mL,2 µg/mL,4 µg/mL,128 µg/mL,>128 µg/mL,–,–,–,–,"% Survival (IP, QD) (E. coli 25922; 3.0 mg/kg IP qd at T+1 hour): 67%"
"C#CCOCCOCCOCCOCCNC(=O)CN(CC(=O)N[C@@H](CCCC)C(=O)N[C@@H](CCN)C(=O)N[C@H](C(=O)NNC(=O)N[C@H]1CCNC(=O)[C@H]([C@@H](C)O)NC(=O)[C@H](CCN)NC(=O)[C@H](CCN)NC(=O)[C@H](CC(C)C)NC(=O)[C@@H](CC2CCCCC2)NC(=O)[C@H](CCN)NC1=O)[C@H](O)CCCCCC)CC(=O)N[C@@H](CCCC)C(=O)N[C@@H](CCN)C(=O)N[C@H](C(=O)NNC(=O)N[C@H]1CCNC(=O)[C@H]([C@@H](C)O)NC(=O)[C@H](CCN)NC(=O)[C@H](CCN)NC(=O)[C@H](CC(C)C)NC(=O)[C@@H](CC2CCCCC2)NC(=O)[C@H](CCN)NC1=O)[C@H](O)CCCCCC [Int-117] (I: [Nle][Dab][X1][azaGly][Dab][Dab][dCha]L[Dab][Dab]T / II: [Nle][Dab][X1][azaGly][Dab][Dab][dCha]L[Dab][Dab]T; lactam I:5-I:C, II:5-II:C; linker I:N-II:N via X4)",8 µg/mL,8 µg/mL,–,–,8 µg/mL,8 µg/mL,8 µg/mL,8 µg/mL,16 µg/mL,8 µg/mL,8 µg/mL,16 µg/mL,4 µg/mL,8 µg/mL,8 µg/mL,16 µg/mL,1.08 µg/mL,1.08 µg/mL,>0.2 µg/mL,>0.2 µg/mL,MBC in blood EC 25922 (E. coli ATCC 25922): >0.2 µg/mL; MIC in RPMI PA 01 (Pa PAO1): 2.16 µg/mL; MIC [1]: 8 µg/mL
C#CCOCCOCCOCCOCCC(=O)Nc1nc(C)c(C(=O)N[C@@H](CCCC)C(=O)C[C@@H](CCN)C(=O)N[C@H](C(=O)NC(CCCN)C(=O)N[C@H]2CCNC(=O)[C@H]([C@@H](C)O)NC(=O)[C@H](CCN)NC(=O)[C@H](CCN)NC(=O)[C@H](CC(C)C)CC(=O)[C@@H](Cc3ccccc3)NC(=O)[C@H](CCN)CC2=O)[C@@H](C)O)s1 (some centres unmarked) [Int-125],1 µg/mL,1 µg/mL,–,–,2 µg/mL,16 µg/mL,64 µg/mL,1 µg/mL,–,1 µg/mL,2 µg/mL,2 µg/mL,1 µg/mL,4 µg/mL,–,>128 µg/mL,0.94 µg/mL,1.88 µg/mL,0.2 µg/mL,0.1 µg/mL,"MIC (Ab 8990 (COL^R); Ab 8990 (COL^R), media CA-MHB): >128 µg/mL; MBC in blood EC 25922 (E. coli ATCC 25922): 0.05 µg/mL; MIC (Kp 6951 (COL^R); Kp 6951 (COL^R), media CA-MHB): >128 µg/mL; MIC in RPMI PA 01 (Pa PAO1): 3.76 µg/mL; MIC [1]: 32 µg/mL"
